# Data: patent publication US11427548B2 (Arvinas Operations, Inc., priority 2015, dated 2022)
# Read-outs that look alike come from different tables or passages of the source.
# Biological target: T1, Androgen Receptor (Homo sapiens, UniProt P10275)
# T1 construct: endogenous in cells; host or cells: VCaP cells
# T1 sequence (P10275 1-920): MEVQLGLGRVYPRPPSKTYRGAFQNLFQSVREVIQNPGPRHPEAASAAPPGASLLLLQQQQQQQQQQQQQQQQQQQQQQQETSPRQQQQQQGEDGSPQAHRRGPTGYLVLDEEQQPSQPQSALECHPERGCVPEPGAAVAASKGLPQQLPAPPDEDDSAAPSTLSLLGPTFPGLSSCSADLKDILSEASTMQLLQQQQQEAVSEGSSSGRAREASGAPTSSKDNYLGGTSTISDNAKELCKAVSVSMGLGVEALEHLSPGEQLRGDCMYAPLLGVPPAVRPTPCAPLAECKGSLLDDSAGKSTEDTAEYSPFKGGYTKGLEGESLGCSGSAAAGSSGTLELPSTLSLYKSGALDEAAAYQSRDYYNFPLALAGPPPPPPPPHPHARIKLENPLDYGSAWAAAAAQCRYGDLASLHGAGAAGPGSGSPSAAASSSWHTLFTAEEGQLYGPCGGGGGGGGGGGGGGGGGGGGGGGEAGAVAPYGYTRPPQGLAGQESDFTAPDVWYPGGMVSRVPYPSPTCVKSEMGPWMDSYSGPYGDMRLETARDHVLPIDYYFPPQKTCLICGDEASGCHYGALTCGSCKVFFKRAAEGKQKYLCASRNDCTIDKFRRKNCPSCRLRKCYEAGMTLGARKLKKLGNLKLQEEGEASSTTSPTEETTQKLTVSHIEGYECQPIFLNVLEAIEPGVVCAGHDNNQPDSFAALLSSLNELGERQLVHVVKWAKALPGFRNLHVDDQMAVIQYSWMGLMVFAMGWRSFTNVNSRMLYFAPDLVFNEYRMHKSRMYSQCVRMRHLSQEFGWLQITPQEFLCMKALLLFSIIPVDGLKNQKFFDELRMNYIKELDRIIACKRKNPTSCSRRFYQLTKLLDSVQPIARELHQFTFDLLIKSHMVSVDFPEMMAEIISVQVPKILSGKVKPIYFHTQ
# Assay: Androgen Receptor ELISA assay (PathScan AR ELISA) in VCaP cells: AR degradation, Dmax and DC50
# Format: cell-based
# Conditions: Table 36; for DC50: read-out: VCaP DC50; for Dmax: VCaP
# Procedure, shortened: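 VCaP cells, 30,000/well, grown ≥3 days in phenol red-free RPMI with 5% charcoal-stripped FBS; compound added in 0.1% DMSO with 0.1 nM R1881, 7 half-log doses, 24 h. Lysate AR quantified by PathScan sandwich ELISA, HRP/TMB read at 450 nm, giving DC50 and Dmax.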
# [1] = VCaP cells, read-out: VCaP Dmax (%)
DC50 (VCaP cells) [µM],Dmax [1] [%],"Dmax (read-out: VCaP Dmax (%), VCaP cells) [%]",SMILES,VCaP Dmax (%) (VCaP cells)
< 0.05,> 71,–,"Cc1ncsc1-c1ccc(C(CO)NC(=O)[C@@H]2C[C@@H](O)CN2C(=O)[C@@H](NC(=O)CCC(F)(F)CN2CCN(c3ccc(C(=O)N[C@H]4C(C)(C)[C@H](Oc5ccc(C#N)c(Cl)c5)C4(C)C)cn3)CC2)C(C)(C)C)cc1 (stereo partly drawn) [Example 800, N-((1r,3r)-3-(3-chloro-4-cyanophenoxy)-2,2,4,4-tetramethylcyclobutyl)-6-(4-(2,2-difluoro-5-(((S)-1-((2S,4R)-4-hydroxy-2-(((R)-2-hydroxy-1-(4-(4-methylthiazol-5-yl)phenyl)ethyl)carbamoyl)pyrrolidin-1-yl)-3,3-dimethyl-1-oxobutan-2-yl)amino)-5-oxopentyl)piperazin-1-yl)nicotinamide]",–
< 0.05,51 to 70,–,"Cc1ncsc1-c1ccc([C@H](C)NC(=O)C2C[C@@H](O)CN2C(=O)[C@@H](NC(=O)CN2C[C@@H]3C[C@H]2CN3CCCc2ccc(C(=O)N[C@H]3C(C)(C)[C@H](Oc4ccc(C#N)c(Cl)c4)C3(C)C)cc2)C(C)(C)C)cc1 (stereo partly drawn) [Example 801, (2S,4R)-1-((S)-2-(2-((1S,4S)-5-(3-(4-(((1r,3S)-3-(3-chloro-4-cyanophenoxy)-2,2,4,4-tetramethylcyclobutyl)carbamoyl)phenyl)propyl)-2,5-diazabicyclo[2.2.1]heptan-2-yl)acetamido)-3,3-dimethylbutanoyl)-4-hydroxy-N-((S)-1-(4-(4-methylthiazol-5-yl)phenyl)ethyl)pyrrolidine-2-carboxamide]",–
> 0.501,26 to 50,–,"Cc1ncsc1-c1ccc([C@H](C)NC(=O)C2C[C@@H](O)CN2C(=O)[C@@H](NC(=O)CCCC2(N3CCN(c4ccc(C(=O)N[C@H]5C(C)(C)[C@H](Oc6ccc(C#N)c(Cl)c6)C5(C)C)cn4)CC3)COC2)C(C)(C)C)cc1 (stereo partly drawn) [Example 803, N-((1r,3r)-3-(3-chloro-4-cyanophenoxy)-2,2,4,4-tetramethylcyclobutyl)-6-(4-(3-(4-(((S)-1-((2S,4R)-4-hydroxy-2-(((S)-1-(4-(4-methylthiazol-5-yl)phenyl)ethyl)carbamoyl)pyrrolidin-1-yl)-3,3-dimethyl-1-oxobutan-2-yl)amino)-4-oxobutyl)oxetan-3-yl)piperazin-1-yl)nicotinamide]",–
< 0.05,–,51 to 70,"Cc1ncsc1-c1ccc([C@H](C)NC(=O)[C@@H]2C[C@@H](O)CN2C(=O)[C@@H](NC(=O)CN2CCN(CCCCN3CCN(c4ccc(C(=O)N[C@H]5C(C)(C)[C@H](Oc6ccc(C#N)c(Cl)c6)C5(C)C)cn4)CC3)CC2)C(C)(C)C)cc1 [Example 804, N-((1r,3r)-3-(3-chloro-4-cyanophenoxy)-2,2,4,4-tetramethylcyclobutyl)-6-(4-(4-(4-(2-(((S)-1-((2S,4R)-4-hydroxy-2-(((S)-1-(4-(4-methylthiazol-5-yl)phenyl)ethyl)carbamoyl)pyrrolidin-1-yl)-3,3-dimethyl-1-oxobutan-2-yl)amino)-2-oxoethyl)piperazin-1-yl)butyl)piperazin-1-yl)nicotinamide]",–

SMILES,DC50 (VCaP cells) [µM],Dmax [1] [%],"Dmax (read-out: VCaP Dmax (%), VCaP cells) [%]",VCaP Dmax (%) (VCaP cells)
"Cc1ncsc1-c1ccc([C@H](C)NC(=O)[C@@H]2C[C@@H](O)CN2C(=O)[C@@H](NC(=O)CN2C3CCC2CN(CCCc2ccc(C(=O)NC4C(C)(C)C(Oc5ccc(C#N)c(Cl)c5)C4(C)C)cc2)C3)C(C)(C)C)cc1 (stereo partly drawn) [Example 802, (2S,4R)-1-((2S)-2-(2-(3-(3-(4-(((1r,3r)-3-(3-chloro-4-cyanophenoxy)-2,2,4,4-tetramethylcyclobutyl)carbamoyl)phenyl)propyl)-3,8-diazabicyclo[3.2.1]octan-8-yl)acetamido)-3,3-dimethylbutanoyl)-4-hydroxy-N-((S)-1-(4-(4-methylthiazol-5-yl)phenyl)ethyl)pyrrolidine-2-carboxamide]",< 0.05,–,–,+++ (51% ≤ Dmax ≤ 70%)
